# Reference: patent publication US20240100065A1, “METHODS FOR TREATING RECEPTOR-INTERACTING PROTEIN KINASE 1-MEDIATED DISEASES” (Genzyme Corporation, priority 2022, published 2024)
# Read-outs that look alike come from different tables or passages of the source.
# Columns and labels:
# [1] = Concentration-ECG (QTcF, HR, PR, QRS) analysis from 24-hour Holter; type: in vivo, human
# Protocol: A thorough time-matched (TM∘) ECG parameters analysis in relation with SAR443820 concentrations on Day 1 (SAD-Part 1a) and on Day 14 (MAD Part 2) over 24 hours compared to the baseline prior the first dosing was performed on ECG extracted from 24-hour Holter data.
# For Part 1a (SAD) and Part 2 (MAD), the concentration-ECG population will encompass all randomized participants treated by SAR443820 as long as they have at least 1 ECG assessment time-matched with a pharmacokinetic concentration (ECGs centrally read coming from 24-hours Holter ECG). Participants randomized in the placebo group will also be included in the Concentration-ECG population if they have at least 1 non missing change from baseline in ECG parameter. Exposure-response analyses between QTcF parameters (change from time-matched baseline in 24-hours Holter ECG data) and corresponding Compound 1 concentrations were performed using graphical tools and regression methods over 24 hours on Day 1 (SAD-Part 1a) or Day 14 (MAD-Part 2) post-dose. Predictions at selected concentrations were computed using a linear mixed effect model (see Am Heart J. 2014; 168(3):262-72. J Pharmacokinet Pharmacodyn. 2018; 45(3):383-97).
# [2] = Nonhuman primate toxicology study (NOAEL exposure); type: in vivo; settings: 20 mg BID vs nonhuman primate study
# [3] = CSF concentration, CSF-to-unbound plasma concentration ratio (Part 1b); type: in vivo, healthy adult participants (human); settings: human; for Kp: oral
# Protocol: Compound 1 concentrations in CSF were measured after single oral dosing in two dedicated cohorts in Part 1b. Lumbar puncture was performed for CSF collection and only one CSF sample per participant was collected on Day 1. Given the limited number of CSF PK samples that were collected in this study, CSF PK parameters were not determined; instead, Compound 1 concentrations in CSF were reported and concentration ratio between CSF and unbound plasma was calculated.
# PK population included all participants exposed to Compound 1 with no major or critical deviations related to Compound 1 and for whom PK data were considered sufficient and interpretable. PK parameters were summarized by descriptive statistics for each dose level group. Distribution of Tmax values was represented by histogram plots for each dose level group. In Part 1a, dose proportionality was assessed using a linear model on Cmax, AUClast and AUC. In Part 2, all PK analyses were performed separately for each regimen (OD and BID). Steady state was assessed on Ctrough using a non-linear model. Accumulation was assessed using a linear model on log-transformed accumulation ratio. Dose proportionality was assessed using a power model on Cmax and AUCtau on Day 1 and Day 14, separately. Variance components of log-transformed Cmax and AUCtau were estimated using a linear model. In Part 1b, CSF concentration was described by dose level group and CSF to plasma unbound concentration ratios calculated were described in the same way. 4β-hydroxycholesterol on Day 14 versus Day 1 pre-dose concentration ratios were summarized using descriptive statistics by dose level group and point estimates with 90% confidence interval (90% CI) for the geometric mean of the log-transformed Day14/Day1 ratio was calculated in Part 2.
# pS166-RIPK1 = target: T1, pS166-RIPK1 (Homo sapiens, UniProt Q13546); assay: pS166-RIPK1 inhibition in vitro in microglia; type: cell-based
# T1 construct: endogenous in cells
# T1 sequence (Q13546 1-671): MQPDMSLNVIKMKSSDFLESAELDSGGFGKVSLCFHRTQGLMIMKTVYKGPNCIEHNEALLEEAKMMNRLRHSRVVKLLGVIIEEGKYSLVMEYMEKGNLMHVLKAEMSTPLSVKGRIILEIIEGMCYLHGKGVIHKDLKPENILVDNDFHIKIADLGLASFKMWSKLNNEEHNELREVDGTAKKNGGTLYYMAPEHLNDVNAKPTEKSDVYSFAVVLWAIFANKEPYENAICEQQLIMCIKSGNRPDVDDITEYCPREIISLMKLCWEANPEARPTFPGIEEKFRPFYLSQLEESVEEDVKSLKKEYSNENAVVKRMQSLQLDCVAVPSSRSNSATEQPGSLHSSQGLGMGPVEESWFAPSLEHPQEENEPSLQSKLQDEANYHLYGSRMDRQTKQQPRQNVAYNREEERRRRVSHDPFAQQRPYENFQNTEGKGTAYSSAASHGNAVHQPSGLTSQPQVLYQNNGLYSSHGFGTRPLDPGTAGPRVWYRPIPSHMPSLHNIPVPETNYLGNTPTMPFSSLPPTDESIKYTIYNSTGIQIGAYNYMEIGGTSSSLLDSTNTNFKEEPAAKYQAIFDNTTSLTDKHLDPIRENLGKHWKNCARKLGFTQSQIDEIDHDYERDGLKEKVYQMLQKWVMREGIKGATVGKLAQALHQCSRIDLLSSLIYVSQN
# [4] = Part 1a Day 1, 10 mg, at Cmax 116.00 ng/ml
# [5] = Part 1a Day 1, 20 mg, at Cmax 241.00 ng/ml
# [6] = Part 1a Day 1, 30 mg, at Cmax 417.00 ng/ml
# [7] = Part 1a Day 1, 40 mg, at Cmax 555.00 ng/ml
# [8] = Part 2 Day 14, 10 mg QD, at Cmax 158.00 ng/ml
# [9] = Part 2 Day 14, 15 mg BID, at Cmax 268.00 ng/ml
# [10] = Part 2 Day 14, 20 mg BID, at Cmax 353.00 ng/ml
# [11] = Part 2 Day 14, 20 mg QD, at Cmax 250.00 ng/ml
structure (smiles),measurement,setting,value
"CC(C)(C(=O)N1CCOc2c(C#N)cncc2C1)C(F)F [Compound 1, 4-(3,3-difluoro-2,2-dimethyl-propanoyl)-3,5-dihydro-2H-pyrido[3,4-f] [1,4]oxazepine-9-carbonitrile]",Predicted delta Heart Rate vs placebo,[1]; [4],−3.68 beats/min
same,Predicted delta PR Interval vs placebo,[1]; [4],5.87 ms
same,Predicted delta QRS Duration vs placebo,[1]; [4],-0.04 ms
same,Predicted delta QTcF interval vs placebo,[1]; [4],-4.41 ms
same,Predicted delta Heart Rate vs placebo,[1]; [5],−2.62 beats/min
same,Predicted delta PR Interval vs placebo,[1]; [5],6.70 ms
same,Predicted delta QRS Duration vs placebo,[1]; [5],0.43 ms
same,Predicted delta QTcF interval vs placebo,[1]; [5],-3.88 ms
same,Predicted delta Heart Rate vs placebo,[1]; [6],−1.11 beats/min
same,Predicted delta PR Interval vs placebo,[1]; [6],7.88 ms
same,Predicted delta QRS Duration vs placebo,[1]; [6],1.10 ms
same,Predicted delta QTcF interval vs placebo,[1]; [6],-3.15 ms
same,Predicted delta Heart Rate vs placebo,[1]; [7],0.06 beats/min
same,Predicted delta PR Interval vs placebo,[1]; [7],8.80 ms
same,Predicted delta QRS Duration vs placebo,[1]; [7],1.62 ms
same,Predicted delta QTcF interval vs placebo,[1]; [7],-2.57 ms
same,Predicted delta Heart Rate vs placebo,[1]; [8],0.25 beats/min
same,Predicted delta PR Interval vs placebo,[1]; [8],-4.63 ms
same,Predicted delta QRS Duration vs placebo,[1]; [8],2.52 ms
same,Predicted delta QTcF interval vs placebo,[1]; [8],-5.36 ms
same,Predicted delta Heart Rate vs placebo,[1]; [9],−0.26 beats/min
same,Predicted delta PR Interval vs placebo,[1]; [9],-4.53 ms
same,Predicted delta QRS Duration vs placebo,[1]; [9],3.00 ms
same,Predicted delta QTcF interval vs placebo,[1]; [9],-3.74 ms
same,Predicted delta Heart Rate vs placebo,[1]; [10],−0.65 beats/min
same,Predicted delta PR Interval vs placebo,[1]; [10],-4.46 ms
same,Predicted delta QRS Duration vs placebo,[1]; [10],3.37 ms
same,Predicted delta QTcF interval vs placebo,[1]; [10],-2.49 ms
same,Predicted delta Heart Rate vs placebo,[1]; [11],−0.18 beats/min
same,Predicted delta PR Interval vs placebo,[1]; [11],-4.55 ms
same,Predicted delta QRS Duration vs placebo,[1]; [11],2.92 ms
same,Predicted delta QTcF interval vs placebo,[1]; [11],-4.01 ms
same,Effect on QTcF intervals,"[1]; single dose up to 40 mg, repeated dose up to 20 mg BID",No clinically relevant dose-related effects
same,Safety margin relative to the NOAEL exposure,[2],10 fold
same,"CSF/unbound plasma ratio, mean values",[3],~1.0
same,Kp,"[3]; CSF / unbound plasma, Part 1b single dose fed, [T1H-T3H], read-out: CSF-to-unbound Plasma concentration ratio, geometric mean",0.817
same,Kp,"[3]; CSF / unbound plasma, Part 1b single dose fed, [T1H-T3H], read-out: CSF-to-unbound Plasma concentration ratio, mean",0.84
same,Kp,"[3]; CSF / unbound plasma, Part 1b single dose fed, [T1H-T3H], read-out: CSF-to-unbound Plasma concentration ratio, median",0.732
same,Kp,"[3]; CSF / unbound plasma, Part 1b single dose fed, [T4H-T6H], read-out: CSF-to-unbound Plasma concentration ratio, geometric mean",0.755
same,Kp,"[3]; CSF / unbound plasma, Part 1b single dose fed, [T4H-T6H], read-out: CSF-to-unbound Plasma concentration ratio, mean",0.804
same,Kp,"[3]; CSF / unbound plasma, Part 1b single dose fed, [T4H-T6H], read-out: CSF-to-unbound Plasma concentration ratio, median",0.825
same,Kp,"[3]; CSF / unbound plasma, Part 1b single dose fed, [T5H-T16H], read-out: CSF-to-unbound Plasma concentration ratio, geometric mean",1.27
same,Kp,"[3]; CSF / unbound plasma, Part 1b single dose fed, [T5H-T16H], read-out: CSF-to-unbound Plasma concentration ratio, mean",1.27
same,Kp,"[3]; CSF / unbound plasma, Part 1b single dose fed, [T5H-T16H], read-out: CSF-to-unbound Plasma concentration ratio, median",1.31
same,Kp,"[3]; CSF / unbound plasma, time intervals [T1H-T3H] or [T4H-T6H], read-out: Ratio CSF to unbound plasma",~0.8
same,Kp,"[3]; CSF and unbound plasma, read-out: CSF/unbound plasma ratio, mean values",~1
same,Kp,"[3]; CSF and unbound plasma, time interval [T8H-T10H], read-out: Ratio CSF to unbound plasma",~1.3
same,EC90,pS166-RIPK1,64 nM
